Measured values as given in patent US20210260069A1, “IRE1a INHIBITOR IN COMBINATION WITH CANCER [sequence] AGENT FOR CANCER TREATMENT” (Fosun Orinove PharmaTech, Inc., priority 2018, published 2021).
Read-outs that look alike come from different tables or passages of the source.

How the values were obtained:
IRE1α = molecular target: T1, IRE1α (Mus musculus, UniProt Q9EQY0); experiment: Liver PD screening assay: XBP-1 splicing analysis of liver after tunicamycin (Example 25); assay type: in vivo, BALB/c mice
T1 construct: from tissue; host or cells: liver of BALB/c mice (in vivo)
T1 sequence (Q9EQY0 21-977): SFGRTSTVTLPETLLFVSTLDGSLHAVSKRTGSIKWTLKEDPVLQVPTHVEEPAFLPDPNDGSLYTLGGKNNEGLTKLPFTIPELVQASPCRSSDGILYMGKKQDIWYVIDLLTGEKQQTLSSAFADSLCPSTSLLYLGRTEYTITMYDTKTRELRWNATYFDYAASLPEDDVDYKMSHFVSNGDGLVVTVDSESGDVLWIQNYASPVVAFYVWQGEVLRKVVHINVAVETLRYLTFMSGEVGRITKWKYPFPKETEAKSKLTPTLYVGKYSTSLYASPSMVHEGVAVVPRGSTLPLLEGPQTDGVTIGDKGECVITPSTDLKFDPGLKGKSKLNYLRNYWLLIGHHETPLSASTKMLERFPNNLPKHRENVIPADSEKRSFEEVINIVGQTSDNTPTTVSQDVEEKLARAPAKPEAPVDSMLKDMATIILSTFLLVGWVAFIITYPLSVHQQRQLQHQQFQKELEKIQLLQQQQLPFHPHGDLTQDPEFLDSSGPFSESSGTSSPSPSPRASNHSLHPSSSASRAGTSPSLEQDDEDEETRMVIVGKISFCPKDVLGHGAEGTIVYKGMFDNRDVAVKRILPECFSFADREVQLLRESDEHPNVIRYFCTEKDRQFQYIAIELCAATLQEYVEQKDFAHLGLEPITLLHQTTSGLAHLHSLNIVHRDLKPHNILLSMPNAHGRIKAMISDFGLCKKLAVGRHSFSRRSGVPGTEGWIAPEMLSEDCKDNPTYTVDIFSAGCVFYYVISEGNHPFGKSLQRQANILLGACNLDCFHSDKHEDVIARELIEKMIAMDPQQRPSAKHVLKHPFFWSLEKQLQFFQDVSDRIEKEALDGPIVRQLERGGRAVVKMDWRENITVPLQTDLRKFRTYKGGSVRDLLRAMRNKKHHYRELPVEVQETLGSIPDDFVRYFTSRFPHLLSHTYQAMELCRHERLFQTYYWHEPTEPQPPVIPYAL
Experimental: Example 25 was related to comparative PD/PK data of Orin 1001 VS compound 4315, as its structure shown below, which is an earlier lead of this series of compounds. Tunicamycin was used herein to activate IRE1, then Orin 1001 (also called 4485) or 4315 were given to inhibit the activating effect. […] Each gel panel represents one mouse liver sample as in the figure.
BALB/c mice were injected intraperitoneally with 100 microliters at an equivalent dose of 1 mg/kg tunicamycin solution. Two hours after tunicamycin injection, mice were dosed with compound of interest either PO or IV. Following 2 hours for PO delivery of compound, mice were euthanized according to IACUC protocols using CO2 from a […] source. A 1 cm^3 fragment of the liver for homogenization and extraction of the RNA were collected for further analysis. Total RNA is harvested from cells or tissue using TRIzol according to the manufacturer's procedures. After ethanol precipitation and resuspension of the RNA, RiboGreen (Invitrogen) is used to quantify the yield and normalize the RNA concentration in the source tube containing isolated RNA. RT-PCR is performed by Oligo(dT) priming, and SuperScript II (Invitrogen) transcription using the Amplitaq Gold Kit (Applied Biosystems) according to the manufacturer's protocols. Primers for human XBP-1 are 5_-[…]-3_ (forward, Seq ID No. 8) and 5_-[…]-3_ (reverse, Seq ID No. 9), and for mouse are 5_-[…]-3_ (forward, Seq ID No. 10) and 5_-[…]-3 (Seq ID No. 11). All DNA oligos were purchased from IDT DNA Technologies. PCR is run on a Bio-Rad PTC-100 96-well thermocycler with heating at 94° C. for 30 s, annealing at 58° C. for 30 s, and polymerizing at 72° C. for 30 s for 35 cycles. Reactions are run on 4% precast NuSieve gels from Cambrex and visualized by ethidium bromide staining and UV excitation.
(§1) All PK experiments are standard tests that performed in either WuXi PharmaTech or Charels River Laboratory. 4315 and 4485 (Orin 1001) were dosed PO as a suspension in 1% microcellulose (Sigma) and 50% Sucrouse (Sigma).

[1] = Oral bioavailability test, mouse; settings: in vivo, 5 mg/kg dose
Experimental: as §1

[2] = Oral bioavailability test, rat; settings: in vivo, 10 mg/kg dose
Experimental: as §1

[3] = Oral bioavailability test, dog; settings: in vivo, 10 mg/kg dose
Experimental: as §1

In the case of `Cc1c(-c2ccc(C(=O)NCCN3CCOCC3)cc2)c(=O)oc2c(C=O)c(O)ccc12` [compound 4315], the ED50 (IRE1α; read-out: ED50 (inhibition of XBP-1 splicing in liver), PO, 2 hours after tunicamycin 1 mg/kg ip, liver 2 hours after dosing, FIG. 23) is reported as over 10 mg/kg, the ED50 (IRE1α; read-out: ED50 (inhibition of XBP-1 splicing in liver), separate experiment) is reported as 50 mg/kg and the bioavailability [1] is reported as 23%. For the same molecule, the bioavailability [2] was 36% and the bioavailability [3] was 17%.
